Our source for the IC50 values is US20140128385A1 (NOVARTIS AG, priority 2011, published 2014).

Counter-ions that a name gives are not always drawn.

Usually IC50 stands for the concentration that inhibits the measured activity by half.

In the assay the target is T1, BACE-2 (Homo sapiens, UniProt Q9Y5Z0).
T1 construct: Recombinant BACE-2 (extracellular domain, expressed in baculovirus and purified using standard methods); made in house
T1 sequence (Q9Y5Z0 63-473 limits assumed): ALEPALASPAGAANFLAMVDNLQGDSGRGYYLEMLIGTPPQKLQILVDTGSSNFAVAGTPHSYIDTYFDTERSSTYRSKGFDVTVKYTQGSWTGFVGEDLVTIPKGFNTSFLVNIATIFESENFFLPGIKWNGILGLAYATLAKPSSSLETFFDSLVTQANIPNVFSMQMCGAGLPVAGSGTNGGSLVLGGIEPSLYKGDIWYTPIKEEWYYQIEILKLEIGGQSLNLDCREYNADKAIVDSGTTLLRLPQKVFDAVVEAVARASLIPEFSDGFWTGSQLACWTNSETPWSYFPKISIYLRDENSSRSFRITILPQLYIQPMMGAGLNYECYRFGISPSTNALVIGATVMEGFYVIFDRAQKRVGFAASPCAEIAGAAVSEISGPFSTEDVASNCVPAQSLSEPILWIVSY
As to the kind of experiment: assay for inhibition of BACE-2. It counts as biochemical.
`NC1=NC(CF)(c2ccnc(NC(=O)c3ccc(Cl)cn3)c2)COC1` (stereo not shown) [Example 270] came in with an IC50 of 4820 nM.

For `CC1(c2cccc(NC(=O)c3ncc(Br)cn3)c2)COCC(N)=N1` (stereo not shown) [Example 7, 5-Bromo-pyrimidine-2-carboxylic acid [3-(5-amino-3-methyl-3,6-dihydro-2H-[1,4]oxazin-3-yl)-phenyl]-amide hydrochloride], the midpoint of inhibition, the IC50, lay at 309 nM.

The compound `CN1CC(N)=NC(C)(c2cc(NC(=O)c3ccc(Br)cn3)ccc2F)C1` (stereo not shown) [Example 187, 5-Bromo-pyridine-2-carboxylic acid [3-(6-amino-2,4-dimethyl-2,3,4,5-tetrahydro-pyrazin-2-yl)-4-fluoro-phenyl]-amide] showed an IC50 of 104 nM.

Regarding `[2H]c1nc(C(=O)Nc2cc(F)c(F)c([C@]3(C(F)F)COCC(N)=N3)c2)c(C([2H])([2H])[2H])c([2H])c1Cl` [Example 230, 4,6-Dideutero-5-chloro-3-trideuteromethyl-pyridine-2-carboxylic acid [3-((R)-5-amino-3-difluoromethyl-3,6-dihydro-2H-[1,4]oxazin-3-yl)-4,5-difluoro-phenyl]-amide], half-maximal inhibition (IC50) required 8 nM.

Compound `C[C@@]1(c2cc(NC(=O)c3ncc(C(F)F)cc3N)ccc2F)CO[C@@](C)(C(F)(F)F)C(N)=N1` [Example 243, 3-Amino-5-difluoromethyl-pyridine-2-carboxylic acid [3-((3R,6R)-5-amino-3,6-dimethyl-6-trifluoromethyl-3,6-dihydro-2H-[1,4]oxazin-3-yl)-4-fluoro-phenyl]-amide] displayed an IC50 of 11 nM.

For `[2H]C([2H])([2H])OCc1cc(OC([2H])([2H])[2H])cnc1C(=O)Nc1ccc(F)c([C@]2(C(F)F)COCC(N)=N2)c1` [Example 224], the IC50 turned out to be 103 nM.

Consider `CC1(c2cccc(NC(=O)c3ccc(O)nn3)c2)COCC(N)=N1` (stereo not shown) [Example 12, 6-Hydroxy-pyridazine-3-carboxylic acid [3-(5-amino-3-methyl-3,6-dihydro-2H-[1,4]oxazin-3-yl)-phenyl]-amide hydrochloride], for which the IC50 turned out to be 2260 nM.

In turn, `NC1=N[C@@](c2cc(NC(=O)c3ccc(OCF)cn3)ccc2F)(C(F)F)COC1` [Example 139] yielded an IC50 of 106 nM. Compared with the last compound, the IC50 is about 21-fold lower.

`Cc1cnc(C(=O)Nc2ccc(F)c([C@]3(C(F)F)COCC(N)=N3)c2)cn1` [Example 48] gave an IC50 of 511 nM.

As to `Cl.[2H]C([2H])([2H])Oc1cnc(C(=O)Nc2ccc(F)c([C@]3(C)CO[C@@](C)(C(F)(F)F)C(N)=N3)c2)c(Cl)c1` [Example 236, 3-Chloro-5-trideutero-methoxy-pyridine-2-carboxylic acid [3-((3R,6R)-5-amino-3,6-dimethyl-6-trifluoromethyl-3,6-dihydro-2H-[1,4]oxazin-3-yl)-4-fluoro-phenyl]-amide hydrochloride], the IC50 was found to be 6 nM.

In the case of `NC1=NC(c2cc(NC(=O)c3ccc(Cl)cn3)ccc2F)(C(F)F)COC1` (stereo not shown) [Example 43], inhibition was half-maximal at 28 nM (IC50).

Regarding `[2H]C([2H])([2H])Oc1cnc(C(=O)Nc2cc(F)c(F)c([C@]3(C(F)F)COCC(N)=N3)c2)c(Cl)c1` [Example 229, 3-Chloro-5-trideuteromethoxy-pyridine-2-carboxylic acid [3-((R)-5-amino-3-difluoromethyl-3,6-dihydro-2H-[1,4]oxazin-3-yl)-4,5-difluoro-phenyl]-amide], the IC50 was determined as 73 nM.

In turn, `NC1=N[C@@](c2cc(NC(=O)c3ncc(Br)cc3O)ccc2F)(C(F)F)COC1` [Example 119] had a half-inhibitory concentration (IC50) of 14 nM.

Consider `CCc1nc(C(=O)Nc2ccc(F)c([C@]3(C(F)F)COCC(N)=N3)c2)co1` [Example 131], for which the IC50 was determined as 67 nM. This IC50 lies about 4.8-fold higher than the previous one.

For the compound `N#Cc1ccc(C(=O)Nc2cccc(C3(C(F)F)COCC(N)=N3)c2)nc1` (stereo not shown) [Example 36], the IC50 worked out at 910 nM. This IC50 is about 14-fold higher than that of the compound before.

Compound `N#Cc1ccc(C(=O)Nc2ccc(F)c(C3(C(F)F)CNC(=O)C(N)=N3)c2)nc1` (stereo not shown) [Example 203, 5-Cyano-pyridine-2-carboxylic acid [3-(6-amino-2-difluoromethyl-5-oxo-2,3,4,5-tetrahydro-pyrazin-2-yl)-4-fluoro-phenyl]-amide] had an IC50 of 7 nM.

The compound `Cc1cc(Br)cnc1C(=O)Nc1ccc(F)c(C2(C(F)F)CNCC(N)=N2)c1` (stereo not shown) [Example 210, 5-Bromo-3-methyl-pyridine-2-carboxylic acid [3-(6-amino-2-difluoromethyl-2,3,4,5-tetrahydro-pyrazin-2-yl)-4-fluoro-phenyl]-amide] showed an IC50 of 23 nM. This IC50 is about 3.3-fold higher than that of the compound before.

Compound `Cc1cc(C#N)cnc1C(=O)Nc1cc(F)c(F)c([C@]2(C(F)F)COCC(N)=N2)c1` [Example 228, 5-Cyano-3-methyl-pyridine-2-carboxylic acid [3-((R)-5-amino-3-difluoromethyl-3,6-dihydro-2H-[1,4]oxazin-3-yl)-4,5-difluoro-phenyl]-amide] gave an IC50 of 61 nM.

Consider `CC1(c2cccc(NC(=O)c3coc(C(F)(F)F)c3)c2)COCC(N)=N1` (stereo not shown) [Example 23, 5-Trifluoromethyl-furan-3-carboxylic acid [3-(5-amino-3-methyl-3,6-dihydro-2H-[1,4]oxazin-3-yl)-phenyl]-amide hydrochloride], for which the IC50 was above 10000 nM.

`N#Cc1ccc(C(=O)Nc2cc(C3(C(F)F)COCC(N)=N3)c(F)cc2F)nc1` (stereo not shown) [Example 82] registered a half-maximal inhibitory concentration (IC50) of 1230 nM. That is a single-digit micromolar value.

On to `COc1cnc(C(=O)Nc2ccc(F)c([C@]3(C(F)F)COCC(N)=N3)c2)c(C)c1` [Example 221], for which the IC50 was determined as 65 nM.

`NC1=N[C@@](c2cc(NC(=O)c3ncc(OC(F)F)cc3Cl)ccc2F)(C(F)F)COC1` [Example 185, 3-Chloro-5-difluoromethoxy-pyridine-2-carboxylic acid [3-((R)-5-amino-3-difluoromethyl-3,6-dihydro-2H-[1,4]oxazin-3-yl)-4-fluoro-phenyl]-amide hydrochloride] showed an IC50 of 199 nM.

Turning to `NC1=N[C@@](c2cc(NC(=O)c3ncc(C(F)F)nc3N)ccc2F)(C(F)F)COC1` [Example 220], the IC50 stood at 116 nM.

In the case of `C[C@@]1(c2cc(NC(=O)c3ncc(C#N)cc3Cl)ccc2F)CO[C@@](C)(C(F)(F)F)C(N)=N1` [Example 231, 3-Chloro-5-cyano-pyridine-2-carboxylic acid [3-((3R,6R)-5-amino-3,6-dimethyl-6-trifluoromethyl-3,6-dihydro-2H-[1,4]oxazin-3-yl)-4-fluoro-phenyl]-amide hydrochloride], the IC50 stood at 6 nM.

`Cc1nc(C(=O)Nc2ccc(F)c([C@]3(C(F)F)COCC(N)=N3)c2)cs1` [Example 148] had an IC50 of 287 nM.

The compound `C[C@@]1(c2cccc(NC(=O)c3ccc(Br)cn3)c2)CO[C@@](C)(C(F)(F)F)C(N)=N1` (relative stereo) [Example 66, 5-Bromo-pyridine-2-carboxylic acid [3-((3R*,6R*)-5-amino-3,6-dimethyl-6-trifluoromethyl-3,6-dihydro-2H-[1,4]oxazin-3-yl)-phenyl]-amide hydrochloride] returned an IC50 of 6 nM.

Consider `C[C@@]1(c2cccc(NC(=O)c3ccc(Br)cn3)n2)COCC(N)=N1` [Example 257, 5-Bromo-pyridine-2-carboxylic acid [6-((R)-5-amino-3-methyl-3,6-dihydro-2H-[1,4]-oxazin-3-yl)-pyridin-2-yl]-amide], for which the IC50 was 256 nM.

Regarding `COc1cnc(C(=O)Nc2cccc(C3(C)COCC(N)=N3)c2)cn1` (stereo not shown) [Example 18, 5-Methoxy-pyrazine-2-carboxylic acid [3-(5-amino-3-methyl-3,6-dihydro-2H-[1,4]oxazin-3-yl)-phenyl]-amide hydrochloride], the IC50 is 1660 nM.
